Consider 20 compounds from US8039490B2, “Benzoyl-piperidine derivatives as dual modulators of the 5-HT2A and D3 receptors” (Hoffmann-La Roche Inc., priority 2006, dated 2011).

Several values for one entry are separate records, joined by “and”; a condition that tells them apart may be missing. Equal values may be shown once.

The target of experiment [1] is T1, human 5-HT2A serotonin receptor (Homo sapiens, UniProt P28223).
T1 construct: expressed in transfected cells; host or cells: HEK-293 EBNA cells (transient transfection), membrane preparation
Put plainly: Radioligand binding, human 5-HT2A receptor ([3H]-ketanserin). The following applies: second value of the cell; membranes of transfected HEK-293 EBNA cells, 1.1 nM [3H]-ketanserin; read-out: Ki(nM) D3/5HT2A/D2: 5HT2A. Here is the method:
(§1) The cells were harvested 48 h post-transfection, washed three times with cold PBS and stored at −80° C. prior to use. The pellet was suspended in cold 50 mM Tris-HCl buffer containing 10 mM EDTA (pH 7.4) and homogenized with a Polytron (Kinematica AG, Basel, Switzerland) for 20-30 sec at 12.000 rpm. After centrifugation at 48.000×g for 30 min at 4° C., the pellet was resuspended in cold 10 mM Tris-HCl buffer containing 0.1 mM EDTA (pH 7.4), homogenized, and centrifuged as above. This pellet was further resuspended in a smaller volume of ice cold 10 mM Tris-HCl buffer containing 0.1 mM EDTA (pH 7.4) and homogenized with a Polytron for 20-30 sec at 12.000 rpm. The protein content of this homogenate was determined with the Bio-Rad (Bradford) Protein Assay (Biorad Laboratories GmbH, München, Germany) according to the instructions of the manufacturer using gamma globulin as the standard. This homogenate was stored at −80° C. in aliquots and thawed immediately prior to use.
(§2) Aliquots of membrane preparations were thawed at RT, resupended in assay buffer (D2, D3: 50 mM Tris-HCl, 120 mM NaCl, 5 mM MgCl2, 1 mM EDTA, 5 mM KCl, 1.5 mM CaCl2, pH=7.4; 5-HT2A: 50 mM Tris-HCl, 10 mM MgCl2, 1 mM EGTA, pH=7.4), homogenized with a Polytron for 20-30 sec at 12.000 rpm and adjusted to a final concentration of approximately 7.5 μg protein/well (D2, D3) and 15 μg protein/well (5-HT2A), respectively.
(§3) The binding affinity (Ki) of the compounds was determined using radioligand binding. […] The nonspecific binding was determined with equally composed reaction mixtures in the presence of 10 μM unlabelled spiperone. Per well 45 μl of Microscint 40 (Perkin Elmer, Schwerzenbach, Switzerland) was added, plates for sealed, shaken for 20 min and counted for 3 min on a Topcount Microplate Scintillation Counter (Canberra Packard SA, Zürich, Switzerland) with quenching correction.
(§4) The CPM value for each duplicate of a concentration of competing compound was averaged (y1), then the % specific binding was calculated according to the equation (((y1−non-specific)/(total binding-non-specific))×100). Graphs were plotted with the % specific binding using XLfit, a curve fitting program that iteratively plots the data using Levenburg Marquardt algorithm. The single site competition analysis equation used was y=A+((B−A)/(+((x/C)^D))), where y is the % specific binding, A is the minimum y, B is the maximum y, C is the IC50, x is the log10 of the concentration of the competing compound and D is the slope of the curve (the Hill Coefficient). […] The affinity constant (Ki) was calculated using the Cheng-Prusoff equation KI =(IC50/1+([L]/Kd), where [L] is the concentration of radioligand and Kd is the dissociation constant of the radioligand at the receptor as determined by the saturation isotherm.

Experiment [2] addresses T2, human D3 dopamine receptor (Homo sapiens, UniProt P35462).
T2 construct: expressed in transfected cells; host or cells: HEK-293 EBNA cells (transient transfection), membrane preparation
As to the kind of experiment: Radioligand binding, human D3 receptor ([3H]-spiperone). Conditions: first value of the cell; membranes of transfected HEK-293 EBNA cells, 0.5 nM [3H]-spiperone; read-out: Ki(nM) D3/5HT2A/D2: D3. Here is the method:
as §1, §2, §3, §4

For experiment [3], the target named is T3, human D2 dopamine receptor (Homo sapiens, UniProt P14416).
T3 construct: expressed in transfected cells; host or cells: HEK-293 EBNA cells (transient transfection), membrane preparation
Put plainly: Radioligand binding, human D2 receptor ([3H]-spiperone). Conditions: third value of the cell; membranes of transfected HEK-293 EBNA cells, 0.7 nM [3H]-spiperone; read-out: Ki(nM) D3/5HT2A/D2: D2. Here is the method: as §1, §2, §3, §4

T2 sequence (P35462 whole entry): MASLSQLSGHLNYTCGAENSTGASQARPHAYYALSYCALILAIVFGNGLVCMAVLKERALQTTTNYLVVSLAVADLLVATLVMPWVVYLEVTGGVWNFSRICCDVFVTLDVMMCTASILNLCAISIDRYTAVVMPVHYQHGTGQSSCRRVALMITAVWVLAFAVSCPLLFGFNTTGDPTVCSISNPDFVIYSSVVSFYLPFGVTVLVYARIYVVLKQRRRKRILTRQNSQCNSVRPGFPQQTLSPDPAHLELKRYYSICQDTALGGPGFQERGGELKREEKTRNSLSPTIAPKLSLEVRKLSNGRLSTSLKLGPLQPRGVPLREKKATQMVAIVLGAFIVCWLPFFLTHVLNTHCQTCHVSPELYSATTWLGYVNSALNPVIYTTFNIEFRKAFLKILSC
T3 sequence (P14416 whole entry): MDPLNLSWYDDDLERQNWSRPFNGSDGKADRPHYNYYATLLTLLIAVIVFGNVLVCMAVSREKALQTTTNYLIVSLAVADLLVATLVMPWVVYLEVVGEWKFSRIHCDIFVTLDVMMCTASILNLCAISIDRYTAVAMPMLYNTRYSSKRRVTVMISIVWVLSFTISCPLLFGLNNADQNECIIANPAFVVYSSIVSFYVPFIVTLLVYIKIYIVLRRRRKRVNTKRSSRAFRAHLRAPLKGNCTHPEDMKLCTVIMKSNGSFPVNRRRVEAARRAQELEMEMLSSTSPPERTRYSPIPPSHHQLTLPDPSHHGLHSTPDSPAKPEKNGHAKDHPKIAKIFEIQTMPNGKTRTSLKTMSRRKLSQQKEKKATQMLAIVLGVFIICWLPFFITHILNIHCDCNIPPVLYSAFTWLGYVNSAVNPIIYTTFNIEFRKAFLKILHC
T1 sequence (P28223 whole entry): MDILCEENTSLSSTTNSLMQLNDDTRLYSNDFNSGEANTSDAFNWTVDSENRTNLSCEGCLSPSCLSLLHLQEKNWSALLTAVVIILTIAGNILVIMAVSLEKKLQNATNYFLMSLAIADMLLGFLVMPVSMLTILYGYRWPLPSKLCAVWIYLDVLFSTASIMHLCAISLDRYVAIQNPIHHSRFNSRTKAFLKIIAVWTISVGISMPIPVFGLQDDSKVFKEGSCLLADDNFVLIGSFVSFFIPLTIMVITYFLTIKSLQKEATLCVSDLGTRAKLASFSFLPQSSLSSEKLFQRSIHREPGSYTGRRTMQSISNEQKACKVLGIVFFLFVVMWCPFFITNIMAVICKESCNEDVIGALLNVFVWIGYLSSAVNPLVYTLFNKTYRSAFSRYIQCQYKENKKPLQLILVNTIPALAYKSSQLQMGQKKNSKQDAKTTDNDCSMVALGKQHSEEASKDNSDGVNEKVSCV

Turning to `Cc1ccc(NC(=O)N[C@H]2CC[C@H](CCN3CCC(C(=O)c4ccc(F)cc4)CC3)CC2)cc1` [Example 41, Trans-1-(4-{2-[4-(4-Fluoro-benzoyl)-piperidin-1-yl]-ethyl}-cyclohexyl)-3-p-tolyl-urea], the Ki in experiment [1] was found to be 11 nM; in experiment [2], 4 nM; in experiment [3] it was 677 nM.
With `CC(C)(C(=O)N[C@H]1CC[C@H](CCN2CCC(C(=O)c3ccc(F)cc3)CC2)CC1)c1ccc(Cl)cc1` [Example 14, 2-(4-Chloro-phenyl)-N-trans (4-{2-[4-(4-fluoro-benzoyl)-piperidin-1-yl]-ethyl}-cyclohexyl)-isobutyramide], the Ki worked out at 12 nM in experiment [1], 144 nM in experiment [2] and 96 nM in experiment [3].
Regarding `COCCC(=O)N[C@H]1CC[C@H](CCN2CCC(F)(C(=O)c3ccc(F)cc3)CC2)CC1` [Example 50, N-trans (4-{2-[4-Fluoro-4-(4-fluoro-benzoyl)-piperidin-1-yl]-ethyl}-cyclohexyl)-3-methoxy-propionamide], the Ki in experiment [1] is 2 nM; in experiment [2], 29 nM; in experiment [3], 288 nM.
For the compound `O=C(CCOc1ccccc1)N[C@H]1CC[C@H](CCN2CCC(C(=O)c3ccc(F)cc3)CC2)CC1` [Example 30A27, N-trans (4-{2-[4-(4-Fluoro-benzoyl)-piperidin-1-yl]-ethyl}-cydohexyl)-3-phenoxy-propionamide], the results for the Ki in experiment [1], in experiment [2] and in experiment [3] were 8 nM, 8 nM and 1120 nM, respectively.
Turning to `O=C(N[C@H]1CC[C@H](CCN2CCC(C(=O)c3ccc(F)cc3)CC2)CC1)c1ccc(N2CCOCC2)nn1` [Example 30A25, 6-Morpholin-4-yl-pyridazine-3-carboxylic acid trans (4-{2-[4-(4-fluoro-benzoyl)-piperidin-1-yl]-ethyl}-cyclohexyl)-amide], the Ki in experiment [1] is 5 nM; in experiment [2], 26 nM; in experiment [3], 1280 nM.
Take `O=C(C#Cc1ccccc1)N[C@H]1CC[C@H](CCN2CCC(C(=O)c3ccc(F)cc3)CC2)CC1` [Example 30A28, 3-Phenyl-propynoic acid trans (4-{2-[4-(4-fluoro-benzoyl)-piperidin-1-yl]-ethyl}-cyclohexyl)-amide]: the figures for the Ki in experiment [1], in experiment [2] and in experiment [3] were 5 nM, 9 nM and 470 nM, respectively.
Regarding `O=C(CC(F)(F)F)N[C@H]1CC[C@H](CCN2CCC(C(=O)c3ccc(F)cc3)CC2)CC1` [Example 26, 3,3,3-Trifluoro-N-trans-(4-{2-[4-(4-fluoro-benzoyl)-piperidin-1-yl]-ethyl}-cyclohexyl)-propionamide], the Ki in experiment [1] is 14 nM; in experiment [2], 17 nM; in experiment [3], 684 nM.
In the same order, the values of `O=C(N[C@H]1CC[C@H](CCN2CCC(O)(C(=O)c3ccccc3)CC2)CC1)c1ccnc2ccccc12` [Example 33, Quinoline-4-carboxylic acid trans-{4-[2-(4-benzoyl-4-hydroxy-piperidin-1-yl)-ethyl]-cyclohexyl}-amide] are 65 nM, 110 nM and 1980 nM.
In the same order, the values of `O=C(N[C@H]1CC[C@H](CCN2CCC(F)(C(=O)c3ccccc3)CC2)CC1)c1ccnc2ccccc12` [Example 34, Quinoline-4-carboxylic acid trans-{4-[2-(4-benzoyl-4-fluoro-piperidin-1-yl)-ethyl]-cyclohexyl}-amide] are 6 nM, 23 nM and 192 nM.
Turning to `O=C(N[C@H]1CC[C@H](CCN2CCC(C(=O)c3ccc(F)cc3)CC2)CC1)c1ccnc2ncccc12` [Example 20, [1,8]Naphthyridine-4-carboxylic acid trans-(4-{2-[4-(4-fluoro-benzoyl)-piperidin-1-yl]-ethyl}-cyclohexyl)-amide], the Ki in experiment [1] is 5 nM; in experiment [2] it was 18 nM; in experiment [3] it was 586 nM.
Regarding `COC(=O)N[C@H]1CC[C@H](CCN2CCC(C(=O)c3ccc(F)cc3)CC2)CC1` [Example 30A64, Trans (4-{2-[4-(4-Fluoro-benzoyl)-piperidin-1-yl]-ethyl}-cyclohexyl)-carbamic acid methyl ester], the results for the Ki in experiment [1], in experiment [2] and in experiment [3] were 13 nM, 19 nM and 625 nM, respectively.
In the case of `CN(C(=O)N[C@H]1CC[C@H](CCN2CCC(C(=O)c3ccc(F)cc3)CC2)CC1)c1ccc(Cl)cc1` [Example 42, Trans-1-(4-Chloro-phenyl)-3-(4-{2-[4-(4-fluoro-benzoyl)-piperidin-1-yl]-ethyl}-cyclohexyl)-1-methyl-urea], the Ki was 11 nM in experiment [1], 146 nM in experiment [2] and 352 nM in experiment [3].
As to `CC(C)(CO)C(=O)N[C@H]1CC[C@H](CCN2CCC(C(=O)c3ccc(F)cc3)CC2)CC1` [Example 30A29, N-trans (4-{2-[4-(4-Fluoro-benzoyl)-piperidin-1-yl]-ethyl}-cyclohexyl)-3-hydroxy-2,2-dimethyl-propionamide], the Ki in experiment [1] was determined as 25 nM; in experiment [2] it was 207 nM; in experiment [3] it was 1010 nM.
Regarding `CCOCCC(=O)N[C@H]1CC[C@H](CCN2CCC(C(=O)c3ccc(F)cc3)CC2)CC1` [Example 25, 3-Ethoxy-N-trans (4-{2-[4-(4-fluoro-benzoyl)-piperidin-1-yl]-ethyl}-cyclohexyl)-propionamide], the values for the Ki in experiment [1], in experiment [2] and in experiment [3] were 269 nM, 13 nM and 777 nM, respectively.
As to “1-(4-Ethoxy-phenyl)-3-{4-[4-(4-fluoro-benzoyl)-piperidin-1-yl]-butyl}-urea [Example 70]”, the values for the Ki in experiment [1], in experiment [2] and in experiment [3] were 22 nM, 97 nM and 2710 nM, respectively.
As to `O=C(N[C@H]1CC[C@H](CCN2CCC(C(=O)c3ccc(F)cc3F)CC2)CC1)C1CCOC1` (relative stereo) [Example 61, Tetrahydro-furan-3-carboxylic acid trans (4-{2-[4-(2,4-difluoro-benzoyl)-piperidin-1-yl]-ethyl}-cyclohexyl)-amide], the Ki in experiment [1] was 64 nM; in experiment [2], 35 nM; in experiment [3], 2900 nM.
`O=C(N[C@H]1CC[C@H](CCN2CCC(C(=O)c3ccc(F)cc3)CC2)CC1)C1CCCCC1` [Example 29, Cyclohexanecarboxylic acid trans-(4-{2-[4-(4-fluoro-benzoyl)-piperidin-1-yl]-ethyl}-cyclohexyl)-amide]: the Ki in experiment [1] is 8 nM; in experiment [2] it was 32 nM and 37 nM; in experiment [3], 450 nM.
Regarding “Trans-1-(4-Ethoxy-phenyl)-3-(4-{2-[4-(4-fluoro-benzoyl)-piperidin-1-yl]-ethyl}-cyclohexyl)-urea [Example 40]”, the Ki is 9 nM in experiment [1], 8 nM in experiment [2] and 502 nM in experiment [3].
As for `O=C(c1ccc(F)cc1)C1CCN(CC[C@H]2CC[C@H](NC(=O)C3(O)CC3)CC2)CC1` [Example 30A59, 1-Hydroxy-cyclopropanecarboxylic acid (trans-4-{2-[4-(4-fluoro-benzoyl)-piperidin-1-yl]-ethyl}-cyclohexyl)-amide], the Ki in experiment [1] came to 5 nM; in experiment [2] it was 19 nM; in experiment [3] it was 888 nM.
In the same order, the values of `O=C(N[C@H]1CC[C@H](CCN2CCC(C(=O)c3ccc(F)cc3)CC2)CC1)c1ccc(-n2cccc2)cc1` [Example 9] are 2 nM, 6 nM and 106 nM.
